PubChem BioAssay (NCI)
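Each compound was tested at five concentrations against cells in 96-well plates for 48 hours. At the GI50, growth is halved. TGI denotes the concentration required for complete inhibition of growth.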

Legend:
Test in all cases: growth of human tumour cells (NCI), 48 h
MDA-N = test system: MDA-N
A549 NSCLC = test system: A549 NSCLC
HOP-62 NSCLC = test system: HOP-62 NSCLC
MOLT-4 leukemia = test system: MOLT-4 leukemia
UO-31 renal = test system: UO-31 renal
NCI-H23 lung = test system: NCI-H23 lung
A498 renal = test system: A498 renal
SNB-19 CNS = test system: SNB-19 CNS
IGROV1 ovarian = test system: IGROV1 ovarian
CCRF-CEM leukemia = test system: CCRF-CEM leukemia
MALME-3M melanoma = test system: MALME-3M melanoma
NCI-H226 lung = test system: NCI-H226 lung
HOP-92 NSCLC = test system: HOP-92 NSCLC
PC-3 prostate = test system: PC-3 prostate
U251 CNS = test system: U251 CNS
OVCAR-4 ovarian = test system: OVCAR-4 ovarian
NCI-H460 lung = test system: NCI-H460 lung
COLO 205 colon = test system: COLO 205 colon
HCT-116 colon = test system: HCT-116 colon
SF-295 CNS = test system: SF-295 CNS
MDA-MB-231 breast = test system: MDA-MB-231 breast
SN12C renal = test system: SN12C renal
HCC-2998 colon = test system: HCC-2998 colon
786-0 renal = test system: 786-0 renal
TK-10 renal = test system: TK-10 renal
SNB-75 CNS = test system: SNB-75 CNS
M14 melanoma = test system: M14 melanoma
NCI-H522 lung = test system: NCI-H522 lung
HT29 colon = test system: HT29 colon
UACC-62 melanoma = test system: UACC-62 melanoma
ACHN renal = test system: ACHN renal
EKVX NSCLC = test system: EKVX NSCLC
SW-620 colon = test system: SW-620 colon
OVCAR-3 ovarian = test system: OVCAR-3 ovarian
K-562 leukemia = test system: K-562 leukemia
LOX IMVI melanoma = test system: LOX IMVI melanoma
OVCAR-8 ovarian = test system: OVCAR-8 ovarian
HS 578T breast = test system: HS 578T breast
CAKI-1 renal = test system: CAKI-1 renal
MDA-MB-435 = test system: MDA-MB-435
OVCAR-5 ovarian = test system: OVCAR-5 ovarian
BT-549 breast = test system: BT-549 breast
SF-539 CNS = test system: SF-539 CNS
DU-145 prostate = test system: DU-145 prostate
SR leukemia = test system: SR leukemia
KM12 colon = test system: KM12 colon
NCI/ADR-RES ovarian = test system: NCI/ADR-RES ovarian
SK-MEL-2 melanoma = test system: SK-MEL-2 melanoma
SK-MEL-5 melanoma = test system: SK-MEL-5 melanoma
RXF 393 renal = test system: RXF 393 renal
SK-OV-3 ovarian = test system: SK-OV-3 ovarian
MCF7 breast = test system: MCF7 breast
HCT-15 colon = test system: HCT-15 colon
SK-MEL-28 melanoma = test system: SK-MEL-28 melanoma
T-47D breast = test system: T-47D breast
HL-60(TB) leukemia = test system: HL-60(TB) leukemia
RPMI-8226 leukemia = test system: RPMI-8226 leukemia
SF-268 CNS = test system: SF-268 CNS
UACC-257 melanoma = test system: UACC-257 melanoma

## N=C1C=C/[N+](=C\C=CCO)C([O-])=N1
MDA-N
  GI50: > 1000 µM
  TGI: > 1000 µM

## O=c1oc2ccc(Br)cc2c(=O)n1-c1ccc(Br)cc1F
A549 NSCLC
  GI50: 2.05 µM
  TGI: > 35.5 µM
HOP-62 NSCLC
  GI50: 1.35 µM
  TGI: 4.79 µM
MOLT-4 leukemia
  GI50: 1.31 µM
  TGI: 4.16 µM
UO-31 renal
  GI50: 0.442 µM
  TGI: 2.48 µM
NCI-H23 lung
  GI50: 0.369 µM
  TGI: 2.65 µM
A498 renal
  GI50: 0.245 µM
  TGI: 0.774 µM
SNB-19 CNS
  GI50: 0.378 µM
  TGI: 46.7 µM
IGROV1 ovarian
  GI50: 0.337 µM
  TGI: 11.9 µM
CCRF-CEM leukemia
  GI50: 1 µM
  TGI: 4.95 µM
MALME-3M melanoma
  GI50: 0.436 µM
  TGI: 2.55 µM
NCI-H226 lung
  GI50: 1.26 µM
  TGI: 4.72 µM
HOP-92 NSCLC
  GI50: 0.191 µM
  TGI: 0.683 µM
PC-3 prostate
  GI50: 0.864 µM
  TGI: 6.77 µM
U251 CNS
  GI50: 0.725 µM
  TGI: 9.82 µM
OVCAR-4 ovarian
  GI50: 0.539 µM
  TGI: > 100 µM
NCI-H460 lung
  GI50: 0.511 µM
  TGI: 11.1 µM
COLO 205 colon
  GI50: 3.72 µM
  TGI: 14 µM
HCT-116 colon
  GI50: 0.555 µM
  TGI: 2.1 µM
SF-295 CNS
  GI50: 1.49 µM
  TGI: 3.29 µM
MDA-MB-231 breast
  GI50: 0.551 µM
  TGI: 4.81 µM
SN12C renal
  GI50: 0.458 µM
  TGI: 3.62 µM
HCC-2998 colon
  GI50: 2.47 µM
  TGI: 8.04 µM
786-0 renal
  GI50: 2.06 µM
  TGI: 4.91 µM
TK-10 renal
  GI50: 2.86 µM
  TGI: 12.8 µM
SNB-75 CNS
  GI50: 0.289 µM
  TGI: 2.45 µM
M14 melanoma
  GI50: 0.816 µM
  TGI: 3.59 µM
NCI-H522 lung
  GI50: 0.351 µM
  TGI: 2.92 µM
HT29 colon
  GI50: 3.09 µM
  TGI: 12.7 µM
UACC-62 melanoma
  GI50: 0.223 µM
  TGI: 0.772 µM
ACHN renal
  GI50: 0.933 µM
  TGI: 8.46 µM
EKVX NSCLC
  GI50: 1.51 µM
  TGI: 8.24 µM
SW-620 colon
  GI50: 1.22 µM
  TGI: 11.2 µM
OVCAR-3 ovarian
  GI50: 0.477 µM
  TGI: 6.62 µM
K-562 leukemia
  GI50: 0.465 µM
  TGI: > 100 µM
LOX IMVI melanoma
  GI50: 0.469 µM
  TGI: 2.54 µM
OVCAR-8 ovarian
  GI50: 1.22 µM
  TGI: 9.14 µM
HS 578T breast
  GI50: 0.38 µM
  TGI: 3.79 µM
CAKI-1 renal
  GI50: 0.507 µM
  TGI: 3.93 µM
MDA-MB-435
  GI50: 0.64 µM
  TGI: 8.87 µM
OVCAR-5 ovarian
  GI50: 3.1 µM
  TGI: 48.1 µM
BT-549 breast
  GI50: 0.452 µM
  TGI: 2.2 µM
SF-539 CNS
  GI50: 0.501 µM
  TGI: 3.54 µM
DU-145 prostate
  GI50: 1.14 µM
  TGI: 21.4 µM
SR leukemia
  GI50: 0.712 µM
  TGI: 6.88 µM
KM12 colon
  GI50: 2.06 µM
  TGI: 4.93 µM
NCI/ADR-RES ovarian
  GI50: 0.553 µM
  TGI: 4.33 µM
SK-MEL-2 melanoma
  GI50: 0.371 µM
  TGI: 1.88 µM
SK-MEL-5 melanoma
  GI50: 0.269 µM
  TGI: 0.853 µM
RXF 393 renal
  GI50: 0.68 µM
  TGI: 3.73 µM
SK-OV-3 ovarian
  GI50: 0.56 µM
  TGI: 4.97 µM
MCF7 breast
  GI50: 1.07 µM
  TGI: 8.17 µM
HCT-15 colon
  GI50: 0.733 µM
  TGI: 7.02 µM
SK-MEL-28 melanoma
  GI50: 0.392 µM
  TGI: 1.95 µM
T-47D breast
  GI50: 0.341 µM
  TGI: 3.84 µM
HL-60(TB) leukemia
  GI50: 0.538 µM
  TGI: 2.53 µM
RPMI-8226 leukemia
  GI50: 0.264 µM
  TGI: 1.06 µM
SF-268 CNS
  GI50: 0.688 µM
  TGI: 7.1 µM
UACC-257 melanoma
  GI50: 0.64 µM
  TGI: 3.76 µM
